Where “and” joins values, the source holds several entries; their conditions need not be identical. Equal entries are not always repeated. Where two headings read alike, the source gives them in different places.
What was measured:
bee venom PLA2 = bee venom PLA2 (Apis mellifera, UniProt P00630); assay: biochemical
[1] = Quantitative ORAC assay (fluorescein/AAPH); conditions: for ORAC FL relative ORAC value: fluorescein (FL) + AAPH, n = 3, Trolox = 1; for fold less active than Trolox: ORAC assay, compared with Trolox; for concentration displaying FL decay curve similar to Trolox: fluorescein fluorescence decay induced by AAPH, Figure 3
KB cells = assay: Cytotoxicity assay (MTS) on KB cells
Procedure: The human KB cell line was obtained from ECACC (Salisbury, UK) and grown in D-MEM medium supplemented with 10% fetal calf serum (Invitrogen), in the presence of penicillin, streptomycin and fungizone in a 75 cm^2 flask under 5% CO2. Cells were plated in 96-well tissue culture microplates at a density of 650 cells/well in 200 μL medium and treated 24 hrs later with compounds dissolved in DMSO using a Biomek 3000 automate (Beckman-Coulter). Controls received the same volume of DMSO (1% final volume).

Chain of bee venom PLA2 (P00630 34-167 limits assumed): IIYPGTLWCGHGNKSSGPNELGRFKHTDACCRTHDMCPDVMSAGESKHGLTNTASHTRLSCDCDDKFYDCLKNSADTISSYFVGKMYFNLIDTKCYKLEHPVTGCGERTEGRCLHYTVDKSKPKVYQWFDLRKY

Structure (SMILES)	IC50 (bee venom PLA2; n = 2, read-out: PLA2 IC50) [µM]	ORAC FL relative ORAC value [1]	other results
CN[C@@H](Cc1c[nH]c2cc(Br)c(Br)cc12)C(=O)O [Compound 8, 5,6-Dibromoabrine]	300 ± 10	0.07 ± 0.01 relative Trolox equivalent	
Cc1c(C)c2c(c(C)c1O)CCC(C)(C(=O)O)O2 (centres unmarked) [Trolox, reference compound]		1 relative Trolox equivalent	
COC(=O)C(=O)c1c[nH]c2ccccc12 [Compound 2, (1H-Indol-3-yl)oxoacetic acid methyl ester]	1110 ± 330		
NC(=O)C(=O)c1c[nH]c2ccccc12 [Compound 1, (1H-Indol-3-yl)oxoacetamide]			IC50 (bee venom PLA2): 1170 ± 50 µM
CNCCc1c[nH]c2cc(Br)c(Br)cc12 [Compound 6, N-Methyl-5,6-dibromotryptamine]	330 ± 30		
O=Cc1c[nH]c2cc(Br)ccc12 [Compound 3, 6-Bromoindole-3-carbaldehyde]	1270 ± 60		
C[N+](C)(C)[C@@H](Cc1c[nH]c2cc(Br)c(Br)cc12)C(=O)[O-] [Compound 9, 5,6-Dibromo-L-hypaphorine]	200 ± 10	0.22 relative Trolox equivalent and 0.22 ± 0.04 relative Trolox equivalent	cytotoxicity towards KB cells (KB cells; at 10^−4 M, human KB cell line): did not show any cytotoxic activity; fold less active than Trolox [1]: 4 fold; concentration displaying FL decay curve similar to Trolox [1]: 24.2 µM
CN(C)CCc1c[nH]c2cc(Br)c(Br)cc12 [Compound 7, N,N-Dimethyl-5,6-dibromotryptamine]	770 ± 50	0.06 ± 0.01 relative Trolox equivalent	
C[C@H]1CC[C@H]2C(C)(C)CCC[C@]23Oc2ccc(O)cc2C[C@]13C [Compound 4, Aureol]	460 ± 20	0.29 relative Trolox equivalent and 0.29 ± 0.03 relative Trolox equivalent	IC50 (KB cells; Homo sapiens, KB, 72 h, read-out: KB cells IC50 (50% inhibition of cell proliferation)): 5 µM; fold less active than Trolox [1]: 3 fold; concentration displaying FL decay curve similar to Trolox [1]: 15.5 µM
NCCc1c[nH]c2cc(Br)c(Br)cc12 [Compound 5, 5,6-Dibromotryptamine]	620 ± 10		

Reference: paper PMC3111189, “Bioactive Indole Derivatives from the South Pacific Marine Sponges Rhopaloeides odorabile and Hyrtios sp” (Marine Drugs, 2011)
